# Literature values as cited in patent publication US7795226B2, “Control of radiation injury” (Biotempt B.V., priority 2006, dated 2010).
# How the values were obtained:
# radiation exposure = details: in vivo; cited from earlier work
# gamma-irradiated mice [1] = details: mouse, in vivo; cited from earlier work
# gamma-irradiated mice [2] = details: cited from earlier work
smiles,measurement,setting,value
"O=C(O)c1ccc(/C=C/S(=O)(=O)Cc2ccc(Cl)cc2)cc1 [ON-01210, 4-carboxystyrl-4-chlorobenzylsulfone]",radiation protection activity (in words),radiation exposure,protective only if it is given pre-radiation exposure
C[C@]12CCC(=O)C=C1CC[C@@H]1[C@@H]2CC[C@]2(C)C(=O)CC[C@@H]12 [androstenedione],protection against gamma-irradiation (in words),gamma-irradiated mice [1],No protection was observed
O=c1c(-c2ccc(O)cc2)coc2cc(O)cc(O)c12 [genisteine],Dose reduction Factor (DRF),"gamma-irradiated mice [2]; best dose 200 mg/kg, 24 hours before irradiation",1.16
same,radioprotection (in words),gamma-irradiated mice [2]; given one hour prior to whole body irradiation,no radioprotection was observed
